Each molecule was assayed against human LPAR1 (Homo sapiens, UniProt Q92633) (assay: LPAR1 intracellular calcium mobilization assay (antagonist mode, FLIPR)). Settings: CHO-K1 EDG2 cells expressing human LPAR1; test compound 0.5 nM to 10 μM pre-incubated 60 minutes at 37° C., then LPA 18:2 at EC80 concentration (100 nM).
Type: cell-based
Method: In vitro LPAR1 activity was measured in an intracellular calcium mobilization assay. CHO-K1 EDG2 cells (DiscoverX cat #93-0644C2) expressing human LPAR1 (NM_001401.3) were seeded in a total volume of 25 μL of Dulbecco's Modification of Eagle's Medium (DMEM) with 10% Fetal Bovine Serum, 1× PenStrepGlutamine, 300 μg/ml Hygromycin, and 800 μg/ml G418 into 384-well tissue culture plate (Grenier #781091) at 15,000 cells/well and incubated at 37° C. overnight. Prior to testing, 25 μL Calcium Loading Dye Component A (FLIPR Calcium 6 Assay Kit Molecular Device # R8190) and 2.5 mM Probenecid (Invitrogen # P36400, prepared fresh) in Hank's Balanced Salt Solution (Corning #21-023-CV), 20 mM HEPES (Corning #25-060-CI), 0.1% Bovine Serum Albumin (Sigma-Aldrich # A7906-500G) was add to the cells for 60 minutes at 37° C.
Agonist dose curves of LPA 18:2 (Avanti Polar Lipids cat #857138, 0.5 nM to 10 μM) were recorded to determine the LPA 18:2 EC80 for subsequent antagonist assays. For agonist dose curves, cells were removed from the incubator 2 hours after dye loading and transferred to the FLIPR Tetra instrument (Molecular Devices, San Jose, CA). Calcium mobilization was monitored for 5 min and 10 μL 6×LPA in HBSS/20 mM Hepes/0.1% bovine serum albumin (BSA) was added to the cells 5 seconds into the assay.
To determine the LPAR1 antagonist activity of test compounds, cells were pre-incubated with test compound at a dose range of 0.5 nM to 10 μM, followed by LPA at EC80 concentration (100 nM). After dye loading, cells were removed from the incubator and 0.3 μL of 200× antagonist was added. Cells were incubated for 60 minutes at 37° C. Antagonist activity was measured on a FLIPR Tetra. Calcium mobilization was monitored for 3.5 minutes and 10 μL 6×EC80 LPA in HBSS, 20 mM HEPES, and 0.1% BSA was added to the cells 5 seconds into the assay. Signal amplitude (Maximum minus minimum) values were plotted against log10 of antagonist concentration using Dose Response Tool (Gilead Sciences Inc.) to determine […].
To assess the antagonistic potential of exemplified compounds […] were determined for Compounds 1 to 66 in the LPAR1 calcium mobilization assay. The compound numbers correspond to the compound numbers in Examples 1 to 18. N/A=not available.

human LPAR1, sequence (Q92633 whole entry): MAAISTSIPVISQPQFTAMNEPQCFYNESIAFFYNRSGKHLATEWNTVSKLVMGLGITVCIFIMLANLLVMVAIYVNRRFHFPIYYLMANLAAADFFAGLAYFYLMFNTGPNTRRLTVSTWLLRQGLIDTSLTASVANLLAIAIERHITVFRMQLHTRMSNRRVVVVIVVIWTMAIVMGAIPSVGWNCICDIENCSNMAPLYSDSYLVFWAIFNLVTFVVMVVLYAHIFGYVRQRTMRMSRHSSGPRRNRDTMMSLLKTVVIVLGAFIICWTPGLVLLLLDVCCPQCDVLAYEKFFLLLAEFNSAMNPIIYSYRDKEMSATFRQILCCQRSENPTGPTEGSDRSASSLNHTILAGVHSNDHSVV

SMILES	EC50
C[C@@H](OC(=O)Nc1c(-c2ccc(C(=O)Nc3ccncc3)cn2)nnn1C)c1cccnc1Cl [Compound 1, (R)-1-(2-chloropyridin-3-yl)ethyl (1-methyl-4-(5-(pyridin-4-ylcarbamoyl)pyridin-2-yl)-1H-1,2,3-triazol-5-yl)carbamate]	75.8 nM
C[C@@H](OC(=O)Nc1c(-c2ccc(C(=O)NC34CC(Cl)(C3)C4)cn2)nnn1C)c1cccnc1Cl [Compound 2, (R)-1-(2-chloropyridin-3-yl)ethyl (4-(5-((3-chlorobicyclo[1.1.1]pentan-1-yl)carbamoyl)pyridin-2-yl)-1-methyl-1H-1,2,3-triazol-5-yl)carbamate]	8.1 nM
C[C@@H](OC(=O)Nc1c(-c2ccc(C(=O)NC3CC(F)(F)C3)cn2)nnn1C)c1cccnc1Cl [Compound 3, (R)-1-(2-chloro-pyridin-3-yl)-ethyl (4-(5-((3,3-difluoro-cyclobutyl)-carbamoyl)-pyridin-2-yl)-1-methyl-1H-1,2,3-triazol-5-yl)carbamate]	1420 nM
C[C@@H](OC(=O)Nc1c(-c2ccc(C(=O)NC34CC(F)(C3)C4)cn2)nnn1C)c1cccnc1Cl [Compound 4, (R)-1-(2-chloro-pyridin-3-yl)-ethyl (4-(5-((3-fluorobicyclo-[1.1.1]pentan-1-yl)carbamoyl)-pyridin-2-yl)-1-methyl-1H-1,2,3-triazol-5-yl)carbamate]	142 nM
C[C@@H](OC(=O)Nc1c(-c2ccc(C(=O)NC34CC(C#N)(C3)C4)cn2)nnn1C)c1cccnc1Cl [Compound 5, (R)-1-(2-chloro-pyridin-3-yl)-ethyl (4-(5-((3-cyanobicyclo [1.1.1]pentan-1-yl)carbamoyl)-pyridin-2-yl)-1-methyl-1H-1,2,3-triazol-5-yl)carbamate]	42.9 nM
C[C@@H](OC(=O)Nc1c(-c2ccc(C(=O)NC34CC(C(F)F)(C3)C4)cn2)nnn1C)c1cccnc1Cl [Compound 6]	56.1 nM
C[C@@H](OC(=O)Nc1c(-c2ccc(C(=O)Nc3cccnc3)cn2)nnn1C)c1cccnc1Cl [Compound 7, (R)-1-(2-chloro-pyridin-3-yl)-ethyl (1-methyl-4-(5-(pyridin-3-ylcarbamoyl)-pyridin-2-yl)-1H-1,2,3-triazol-5-yl)carbamate]	334 nM
C[C@@H](OC(=O)Nc1c(-c2ccc(C(=O)NC34CC(C)(C3)C4)cn2)nnn1C)c1cccnc1Cl [Compound 8, (R)-1-(2-chloro-pyridin-3-yl)-ethyl (1-methyl-4-(5-((3-methyl-bicyclo[1.1.1]-pentan-1-yl)-carbamoyl)-pyridin-2-yl)-1H-1,2,3-triazol-5-yl)carbamate]	30.4 nM
C[C@@H](OC(=O)Nc1c(-c2ccc(C(=O)Nc3ccc(F)nc3)cn2)nnn1C)c1cccnc1Cl [Compound 9, (R)-1-(2-chloro-pyridin-3-yl)-ethyl (4-(5-((6-fluoropyridin-3-yl)carbam-oyl)pyridin-2-yl)-1-methyl-1H-1,2,3-triazol-5-yl)carbamate]	325 nM

Further lines, results first:

EC50	SMILES
439 nM	C[C@@H](OC(=O)Nc1c(-c2ccc(C(=O)NC34CC(C3)C4)cn2)nnn1C)c1cccnc1Cl [Compound 10, (R)-1-(2-chloro-pyridin-3-yl)-ethyl (4-(5-(bicyclo[1.1.1]-pentan-1-yl-carbamoyl)-pyridin-2-yl)-1-methyl-1H-1,2,3-triazol-5-yl)carbamate]
62.7 nM	COC12CC(NC(=O)c3ccc(-c4nnn(C)c4NC(=O)O[C@H](C)c4cccnc4Cl)nc3)(C1)C2 [Compound 11, (R)-1-(2-chloro-pyridin-3-yl)-ethyl (4-(5-((3-methoxybicyclo-[1.1.1]pentan-1-yl)carbamoyl)-pyridin-2-yl)-1-methyl-1H-1,2,3-triazol-5-yl)carbamate]
26.5 nM	COC(=O)C12CC(NC(=O)c3ccc(-c4nnn(C)c4NC(=O)O[C@H](C)c4cccnc4Cl)nc3)(C1)C2 [Compound 12, (R)-methyl 3-(6-(5-(((1-(2-chloro-pyridin-3-yl)-ethoxy)carbon-yl)amino)-1-methyl-1H-1,2,3-triazol-4-yl)nicotinamido)-bicyclo[1.1.1]-pentane-1-carbox-ylate]
251 nM	C[C@@H](OC(=O)Nc1c(-c2ccc(C(=O)NC34CC(CO)(C3)C4)cn2)nnn1C)c1cccnc1Cl [Compound 13]
256 nM	C[C@@H](OC(=O)Nc1c(-c2ccc(C(=O)Nc3ccccc3)cn2)nnn1C)c1cccnc1Cl [Compound 14, (R)-1-(2-chloro-pyridin-3-yl)-ethyl (1-methyl-4-(5-(phenyl-carbamoyl)-pyridin-2-yl)-1H-1,2,3-triazol-5-yl)carbamate]
26.2 nM	C[C@@H](OC(=O)Nc1c(-c2ccc(C(=O)NC34CC(C(F)(F)F)(C3)C4)cn2)nnn1C)c1cccnc1Cl [Compound 15, (R)-1-(2-chloro-pyridin-3-yl)ethyl (1-methyl-4-(5-((3-(trifluoro-methyl)bicyclo-[1.1.1]pentan-1-yl)carbamoyl)-pyridin-2-yl)-1H-1,2,3-triazol-5-yl)carbamate]
3590 nM	C[C@@H](OC(=O)Nc1c(-c2ccc(C(=O)NC3CCOCC3)cn2)nnn1C)c1cccnc1Cl [Compound 16, (R)-1-(2-chloro-pyridin-3-yl)-ethyl (1-methyl-4-(5-((tetrahydro-2H-pyran-4-yl)-carbamoyl)-pyridin-2-yl)-1H-1,2,3-triazol-5-yl)carbamate]
649 nM	C[C@@H](OC(=O)Nc1c(-c2ccc(C(=O)Nc3ccc(N4CCOCC4)cc3)cn2)nnn1C)c1cccnc1Cl [Compound 17, (R)-1-(2-chloro-pyridin-3-yl)-ethyl (1-methyl-4-(5-((4-morph-olinophenyl)-carbamoyl)-pyridin-2-yl)-1H-1,2,3-triazol-5-yl)carbamate]
91.2 nM	C[C@@H](OC(=O)Nc1c(-c2ccc(C(=O)NC34CC(C#N)(C3)C4)cn2)nnn1C)c1cc(F)cnc1F [Compound 18, (R)-1-(2,5-difluoropyridin-3-yl)ethyl (4-(5-((3-cyanobicyclo[1.1.1]pentan-1-yl)carbamoyl)pyridin-2-yl)-1-methyl-1H-1,2,3-triazol-5-yl)carbamate]
16.6 nM	C[C@@H](OC(=O)Nc1c(-c2ccc(C(=O)Nc3ccnc(C(F)(F)F)c3)cn2)nnn1C)c1cc(F)cnc1F [Compound 19, (R)-1-(2,5-difluoropyridin-3-yl)ethyl (1-methyl-4-(5-((2-(trifluoromethyl)pyridin-4-yl)carbamoyl)pyridin-2-yl)-1H-1,2,3-triazol-5-yl)carbamate]
313 nM	C[C@@H](OC(=O)Nc1c(-c2ccc(C(=O)NC34CC(F)(C3)C4)cn2)nnn1C)c1cc(F)cnc1F [Compound 20, (R)-1-(2,5-difluoro-pyridin-3-yl)ethyl (4-(5-((3-fluoro-bicyclo[1.1.1]-pentan-1-yl)-carbamoyl)pyridin-2-yl)-1-methyl-1H-1,2,3-triazol-5-yl)carbamate]
44.8 nM	C[C@@H](OC(=O)Nc1c(-c2ccc(C(=O)NC34CC(Cl)(C3)C4)cn2)nnn1C)c1cc(F)cnc1F [Compound 21, (R)-1-(2,5-difluoro-pyridin-3-yl)ethyl (4-(5-((3-chloro-bicyclo[1.1.1]-pentan-1-yl)-carbamoyl)pyridin-2-yl)-1-methyl-1H-1,2,3-triazol-5-yl)carbamate]

Reference: patent US12503454B2, “LPA receptor antagonists and uses thereof” (Gilead Sciences, Inc., priority 2021, dated 2025)
